Laboratory results taken from publication PMC7083565, “In vitro metabolism, reaction phenotyping, enzyme kinetics, CYP inhibition and induction potential of ataluren” (Pharmacology Research & Perspectives, 2020).

Assays:
Type in all cases: in vitro ADME
[1] = Plasma protein binding (ultrafiltration), rat; conditions: male, Sprague Dawley, 50 to 50 000 ng/mL, mean ± SD, n = 3, read-out: percentage protein binding (converted)
Method: [^14C]‐Ataluren, at 50, 500, 5000, and 50 000 ng/mL or 0.175, 1.75, 17.5, and 175 µM, in male mouse, rat, dog, monkey, and human plasma, was incubated (n = 3) at 37°C for approximately 15 minutes, transferred into Centrifree® Micropartition Units (30 000 Da molecular weight cutoff, 1 mL capacity; Amicon Inc), and centrifuged at 37°C and 2000 g for approximately 10 minutes so that the amount of the sample filtered was approximately ≤ 20% of the total volume. After centrifugation, the entire ultrafiltrate was weighed and analyzed for radioactivity using liquid scintillation counting. The percent bound = (1‐Cu/Cm)×100, where Cu is the concentration of radioactivity in the ultrafiltrate and Cm is the concentration of radioactivity in the plasma before centrifugation.

[2] = Ataluren glucuronidation kinetics, human kidney microsomes; conditions: for CLint,u,UGT (scaled) / K m / K m, u / V max: HKM; for CLint,u,UGT (scaled): 12.8 mg protein/g tissue; for K m / K m, u / V max: mean ± SE; for K m / K m, u / V max / fraction unbound at 15 min: n = 3; for fraction unbound at 15 min / microsomal CLint: human, pH 7.5, HKM; for fraction unbound at 15 min: pooled human kidney microsomes incubation mixture, mean ± SD, read-out: fu,inc; for microsomal CLint: pooled human kidney microsomes, read-out: CLint,u,UGT
Method: (§1) Ataluren at 0.5, 2.5, 12.5, 25, 50, 100, 200, and 400 µmol/L, was incubated (n = 3) at 37°C with recombinant human UGT1A9 and with pooled microsomes from human liver, kidney, and intestine (0.025 mg protein/mL, preactivated with alamethicin at 20 µg/mL) in Tris‐HCl buffer (0.1 mol/L, pH 7.5), in the presence of 1 mmol/L EDTA, 5 mmol/L MgCl2, with or without 0.5%, 1%, or 2% BSA. The incubation (100 µL final volume with 0.5% DMSO) was started by adding an equal volume of UDPGA (5 mmol/L) in Tris‐HCl buffer (0.1 mol/L, pH 7.5). After 30 minutes incubation, the incubation mixtures were combined with 0.3 mL of an internal standard solution in acetonitrile with 1% formic acid, followed by membrane plate filtration. The filtrates were used for LC‐MS/MS analysis to quantify the formation of ataluren‐O‐1β‐acyl glucuronide. Detailed LC‐MS/MS conditions are summarized in LC‐MS/MS Analysis section. Ataluren acyl glucuronide formation rate after 30 minutes incubation was calculated using the amount of metabolite formed (pmol) divided by the protein amount in the incubation sample (0.0025 mg) and the incubation time (30 minutes). Ataluren glucuronidation kinetic parameters were determined with and without adjusting BSA binding by nonlinear regression (GraphPad Prism, 5version 5.04, GraphPad Software, Inc.) using Michaelis‐Menten equation which was the best fit compared with other models. The intrinsic clearance was calculated as CLint = Vmax/Km. In order to compare unbound intrinsic clearance by glucuronidation (CLint,u,UGT) in different tissues, CLint,u,UGT was expressed per gram of tissue by correcting the values for the microsomal protein yield, resulting in scaled CLint,u,UGT. Microsomal protein yields of 40.0, 12.8, and 20.6 mg protein/g tissue were used for hepatic, renal, and intestinal data, respectively. ^26
(§2) The high‐throughput membrane ultrafiltration method ^27 was used to determine the fraction unbound in the incubation (n = 3). Incubation mixtures and procedures were essentially the same as the above except that UDPGA (5 mmol/L) was replaced with Tris‐HCl buffer (0.1 mol/L, pH 7.5). After 15 minutes incubation, aliquot was transferred to a Millipore Multiscreen Ultracel‐10 filter plate (10 kDa molecular mass cut off; EMD Millipore). The plate was centrifuged at 37°C and 3710 g. After 30 minutes centrifugation, aliquots of ultrafiltrates and incubation mixtures prior to ultrafiltration were quenched with an internal standard solution in acetonitrile, followed by membrane plate filtration. The filtrates were used for LC‐MS/MS analysis to quantify the concentration of ataluren. The same LC‐MS/MS conditions described above are summarized in LC‐MS/MS Analysis section. The free fraction = Cu/Cm, where Cu is the concentration of ataluren in the ultrafiltrate and Cm is the concentration of ataluren in the incubation system before centrifugation. Unbound Km (Km, u) was recalculated by applying Michaelis‐Menten equation using free ataluren concentrations after correcting BSA binding at each ataluren and BSA concentration level.
(§3) Quantification of ataluren‐O‐1β‐acyl glucuronide formation was conducted on an Accela pump and a PAL autosampler equipped with a TSQ Quantum Ultra mass spectrometer (Thermo Fisher Scientific). A Waters Acquity BEH column (C18, 1.7 µm, 50 × 2.1 mm; Waters Cooperation) was used and maintained at 50°C. The mobile phases were 0.1% formic acid in water (A) and acetonitrile (B). The flow rate was 0.6 mL/min and gradient program was as follows: linear gradient from 0% B to 95% B in 0.5 minutes and hold isocratic at 95% B for 1 minute; linear gradient from 95% B to 0% B in 0.1 minutes and hold isocratic at 0% B for 0.4 minutes. TSQ Quantum Ultra mass spectrometer was equipped with a heated electrospray ionization source operated in negative‐ion mode with a vaporizer temperature of 350°C, capillary temperature of 380°C, and spray voltage of 3 kV. […]

UGT (glucuronidation) = test: as above; conditions: human, pooled human kidney microsomes, pH 7.5, HKM, 0% BSA; read-out: CLint,u,UGT
Method: as §1, §2, §3

[3] = Ataluren glucuronidation kinetics, human intestinal microsomes; conditions: for CLint,u,UGT (scaled) / K m / K m, u / V max: HIM; for CLint,u,UGT (scaled): 20.6 mg protein/g tissue; for K m / K m, u / V max: mean ± SE; for K m / K m, u / V max / fraction unbound at 15 min: n = 3; for fraction unbound at 15 min / microsomal CLint: human, pH 7.5, HIM; for fraction unbound at 15 min: pooled human intestinal microsomes incubation mixture, mean ± SD, read-out: fu,inc; for microsomal CLint: pooled human intestinal microsomes, read-out: CLint,u,UGT
Method: as §1, §2, §3

[4] = Free fraction in human liver microsomes (internal data); conditions: between 1 and 200 µmol/L, 0.1 mg/mL protein concentration

In the case of `O=C(O)c1cccc(-c2noc(-c3ccccc3F)n2)c1` [ataluren, Ataluren], the fraction unbound at 15 min [1] is reported as 0.013, the “human kidney microsomes more active than human liver microsomes in ataluren glucuronidation, in terms of CLint,u/mg protein” value ([2]; HKM vs HLM) is reported as “about 3.7 fold” and the “CLint,u,UGT (scaled)” value ([2]; 0% BSA) is reported as 4.15 mL/min/g of tissue. For the same molecule, the K m ([2]; 0% BSA) was 10.8 ± 1.40 µM, the “K m, u” value ([2]; 0% BSA) was 10.8 ± 1.40 µM and the V max ([2]; 0% BSA) was 3948 ± 90.3 pmol/min/mg. For the same molecule, the “CLint,u,UGT (scaled)” value ([2]; 0.5% BSA) was 12.18 mL/min/g of tissue, the K m ([2]; 0.5% BSA) was 33.0 ± 7.36 µM and the “K m, u” value ([2]; 0.5% BSA) was 3.09 ± 0.671 µM. The V max ([2]; 0.5% BSA) was 2941 ± 168 pmol/min/mg, the “CLint,u,UGT (scaled)” value ([2]; 1% BSA) was 20.0 mL/min/g of tissue and the K m ([2]; 1% BSA) was 36.5 ± 6.31 µM. For the same molecule, the “K m, u” value ([2]; 1% BSA) was 1.64 ± 0.334 µM, the V max ([2]; 1% BSA) was 2563 ± 137 pmol/min/mg and the “CLint,u,UGT (scaled)” value ([2]; 2% BSA) was 16.5 mL/min/g of tissue. The K m ([2]; 2% BSA) was 74.1 ± 8.38 µM, the “K m, u” value ([2]; 2% BSA) was 1.82 ± 0.291 µM and the V max ([2]; 2% BSA) was 2342 ± 119 pmol/min/mg. The “maximal effect of BSA on CLint,u (increase)” value ([2]; human kidney microsomes, with vs without BSA) was roughly 4.8 fold, the fraction unbound at 15 min ([2]; 0% BSA) was 1 ± 0.121 and the fraction unbound at 15 min ([2]; 0.5% BSA) was 0.095 ± 0.003. The fraction unbound at 15 min ([2]; 1% BSA) was 0.05 ± 0.002, the fraction unbound at 15 min ([2]; 2% BSA) was 0.03 ± 0.003 and the microsomal CLint ([2]; 0.5% BSA) was 952 µL/min/mg. The microsomal CLint ([2]; 1% BSA) was 1560 µL/min/mg, the microsomal CLint ([2]; 2% BSA) was 1290 µL/min/mg and the microsomal CLint (UGT (glucuronidation)) was 324 µL/min/mg. For the same molecule, the “CLint,u,UGT (scaled)” value ([3]; 0% BSA) was 0.974 mL/min/g of tissue, the K m ([3]; 0% BSA) was 15.8 ± 3.35 µM and the “K m, u” value ([3]; 0% BSA) was 15.8 ± 3.10 µM. The V max ([3]; 0% BSA) was 747 ± 32.7 pmol/min/mg, the “CLint,u,UGT (scaled)” value ([3]; 0.5% BSA) was 3.38 mL/min/g of tissue and the K m ([3]; 0.5% BSA) was 43.8 ± 6.88 µM. The “K m, u” value ([3]; 0.5% BSA) was 4.03 ± 0.646 µM, the V max ([3]; 0.5% BSA) was 660 ± 28.3 pmol/min/mg and the “CLint,u,UGT (scaled)” value ([3]; 1% BSA) was 3.64 mL/min/g of tissue. The K m ([3]; 1% BSA) was 82.4 ± 11.3 µM, the “K m, u” value ([3]; 1% BSA) was 4.02 ± 0.544 µM and the V max ([3]; 1% BSA) was 711 ± 31.2 pmol/min/mg. For the same molecule, the “CLint,u,UGT (scaled)” value ([3]; 2% BSA) was 3.39 mL/min/g of tissue, the K m ([3]; 2% BSA) was 145 ± 22.0 µM and the “K m, u” value ([3]; 2% BSA) was 4.74 ± 0.835 µM. For the same molecule, the V max ([3]; 2% BSA) was 767 ± 54.6 pmol/min/mg, the “maximal effect of BSA on CLint,u (increase)” value ([3]; human intestine microsomes, with vs without BSA) was roughly 3.7 fold and the fraction unbound at 15 min ([3]; 0% BSA) was 1 ± 0.137. For the same molecule, the fraction unbound at 15 min ([3]; 0.5% BSA) was 0.1 ± 0.0021, the fraction unbound at 15 min ([3]; 1% BSA) was 0.056 ± 0.002 and the fraction unbound at 15 min ([3]; 2% BSA) was 0.036 ± 0.002. The microsomal CLint ([3]; 0% BSA) was 47.3 µL/min/mg, the microsomal CLint ([3]; 0.5% BSA) was 164 µL/min/mg and the microsomal CLint ([3]; 1% BSA) was 177 µL/min/mg. The microsomal CLint ([3]; 2% BSA) was 164 µL/min/mg and the “Free fractions of ataluren in human liver microsomes” value [4] was “close to unity”.
